We go through three molecules from paper PMC4167603 (Nature, 2014).

Experiment [1] has as its target T1, GABAAR β3 homopentamer (GABAAR-β3cryst) (Homo sapiens, UniProt P28472, DEL333-446/INS332SQPARAA).
T1 sequence (P28472 with tags, fused parts or gaps INS332SQPARAA): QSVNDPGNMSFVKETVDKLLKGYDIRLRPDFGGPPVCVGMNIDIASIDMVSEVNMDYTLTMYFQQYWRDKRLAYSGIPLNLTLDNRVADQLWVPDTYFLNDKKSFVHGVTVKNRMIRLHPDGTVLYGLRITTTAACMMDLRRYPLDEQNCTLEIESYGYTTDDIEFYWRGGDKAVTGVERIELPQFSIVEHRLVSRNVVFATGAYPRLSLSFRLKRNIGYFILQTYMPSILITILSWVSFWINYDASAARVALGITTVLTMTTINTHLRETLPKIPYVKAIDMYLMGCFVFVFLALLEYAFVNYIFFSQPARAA
T1 sequence (P28472 447-473): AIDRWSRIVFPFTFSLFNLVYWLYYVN
Description: X-ray co-crystal structure. In kind it is cell-based.

Experiment [2] concerns the target T1, GABAAR β3 homopentamer (GABAAR-β3cryst). Description: thermostabilisation of purified receptor. In kind it is binding.
For experiment [3] the target is unchanged. Description: thermostabilisation of purified receptor. Format: binding. This is another data set of the same source.

Consider `N=C(N)c1ccccc1` [benzamidine], for which a half-maximal effect in experiment [1] (EC50) was put at 61 ± 12 µM.
Molecule `N#Cc1nn(-c2c(Cl)cc(C(F)(F)F)cc2Cl)c(N)c1[S+]([O-])C(F)(F)F` (stereo not drawn) [fipronil] registered an EC50 in experiment [2] of 0.026 ± 0.005 µM.
The molecule `NCCc1c[nH]cn1` [histamine] registered an EC50 in experiment [3] of 400 ± 150 µM.

Broadly, the EC50 is the concentration giving half of the maximal effect. A lower EC50 goes with higher potency in that assay.
